According to US9481688B2, “(Thieno[2,3-b][1,5]benzoxazepin-4-yl)piperazin-1-yl compounds as dual activity H1 inverse agonists/5-HT2A antagonists” (Eli Lilly and Company, priority 2011, dated 2016):
Where a name gives a salt, the structure may show the parent alone.

Assays:
5-HT2A Receptor [1] = target: 5-HT2A Receptor (Rattus norvegicus (Rat), UniProt P14842); assay: 5-HT2A receptor occupancy in vivo (MDL 100907 tracer); details: oral gavage, 1 hr. before tracer
From the text: (§1) J Neurosci Methods. […] Recording Environment. […] Relative humidity averages approximately 50%. […] Study Design and Dosing. […] Data Collection. […] Statistical Analysis.

[2] = Plasma clearance in rat (intravenous); format: in vivo; details: 1 mg/kg, dihydrochloride
Procedure: Male Sprague Dawley rats (body weight range 250-320 g) with indwelling femoral arterial cannulae are obtained from Charles River, Wilmington, Mass. 01887, USA. Test compound is administered intravenously in solution (1 mL/kg) in 20% Captisol® in 22.5 mM phosphate buffer, pH 2, at a final drug concentration of 1.0 mg/mL (free base equivalents). Blood samples are obtained using the indwelling cannula over 24 hr. Samples of plasma are obtained by centrifugation and stored frozen (−20° C.), or on dry ice, prior to analysis.
Frozen plasma samples are thawed to room temperature for bioanalysis of concentrations of test compound. A related internal standard compound in acetonitrile/methanol (1:1, v/v) is added to all samples of plasma (1:1, v/v). The samples are centrifuged to remove precipitated protein prior to analysis. The supernatants are analysed by injection and rapid gradient elution on a Javelin Betasil C18 column (20×2.1 mm cartridge, Mobile phase A: Water/1 M NH4HCO3, 2000:10 v/v, Mobile Phase B: MeOH/1 M NH4HCO3, 2000:10 v/v). The eluted analytes are detected by LC-MS-MS analysis using a Sciex API 4000 triple quadrupole mass spectrometer. Concentrations of compound are determined from standards prepared and analysed under identical conditions. Clearance is calculated using non-compartmental analysis in Watson 7.4, Thermo Fisher Scientific, Inc.

Adrenergic alpha1A = Adrenergic alpha1A (Homo sapiens (Human), UniProt P35348); assay: Adrenergic alpha1A binding
Sequence of Adrenergic alpha1A (P35348 whole entry): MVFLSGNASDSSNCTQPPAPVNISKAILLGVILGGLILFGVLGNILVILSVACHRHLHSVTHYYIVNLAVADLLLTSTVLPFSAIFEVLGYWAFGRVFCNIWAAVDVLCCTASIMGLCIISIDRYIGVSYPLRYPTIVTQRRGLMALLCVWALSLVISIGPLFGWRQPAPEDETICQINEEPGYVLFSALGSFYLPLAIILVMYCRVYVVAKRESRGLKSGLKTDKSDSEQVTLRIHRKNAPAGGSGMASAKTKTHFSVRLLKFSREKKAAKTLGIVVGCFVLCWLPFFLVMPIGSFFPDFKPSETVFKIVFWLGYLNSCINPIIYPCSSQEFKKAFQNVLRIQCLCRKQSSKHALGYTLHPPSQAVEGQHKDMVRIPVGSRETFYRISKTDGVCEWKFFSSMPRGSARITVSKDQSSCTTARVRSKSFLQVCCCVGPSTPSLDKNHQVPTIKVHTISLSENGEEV
From the text: (§2) Further, the compounds of the invention may be tested in binding assays and functional activity assays by well known methods for other physiologically important receptors such as, but not limited to, the hERG channel, other serotonin receptors (specifically 5-HT1B, 5-HT1D, receptors, lack of agonist activity at 5-HT2B receptors, 5-HT2C, 5-HT5, 5-HT6, and 5-HT7 receptors), dopaminergic receptors (specifically D1, D2, and D3), GABAA receptors, adrenergic receptors and monoamine transporters.

[3] = target: recombinant 5-HT2C receptor (human) (Homo sapiens (Human), UniProt P28335); assay: 5-HT2C competition binding assay ([125I]-DOI, SPA); details: dihydrochloride
Sequence of recombinant 5-HT2C receptor (human) (P28335 whole entry, looked up): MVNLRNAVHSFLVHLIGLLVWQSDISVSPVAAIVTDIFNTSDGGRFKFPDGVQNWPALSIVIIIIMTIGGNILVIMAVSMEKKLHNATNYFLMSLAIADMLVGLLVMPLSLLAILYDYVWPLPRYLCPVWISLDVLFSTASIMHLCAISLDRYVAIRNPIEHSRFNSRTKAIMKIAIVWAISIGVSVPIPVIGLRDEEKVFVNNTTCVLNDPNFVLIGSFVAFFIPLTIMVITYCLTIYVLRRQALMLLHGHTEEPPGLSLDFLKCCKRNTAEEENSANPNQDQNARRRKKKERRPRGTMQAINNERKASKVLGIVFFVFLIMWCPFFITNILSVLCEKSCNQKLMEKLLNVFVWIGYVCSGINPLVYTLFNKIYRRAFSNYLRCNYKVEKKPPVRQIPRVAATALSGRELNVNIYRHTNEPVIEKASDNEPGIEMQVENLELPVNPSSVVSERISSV
Procedure: [^125I]-(±)DOI binding experiments are carried out in SPA 96-well format. Membranes used in this assay are prepared from AV-12 cells stably expressing recombinant 5-HT2C receptor (human). The incubation is initiated by the addition of a mixture of WGA PVT SPA beads (0.5 mg/well, Perkin Elmer (MA, USA), RPNQ0001) and 2.5 μg membranes to assay buffer (50 mM Tris-HCl, 10 mM MgCl2, 0.5 mM EDTA, 10 μM pargyline, 0.1% ascorbic acid, pH7.4) containing 0.2 nM [[^125I]-(±)DOI and varying concentrations of the test compound (10 point concentration response curves). Non-specific binding is determined in the presence of 20 μM 1-(1-Naphthyl) piperazine. Samples are incubated for 4 hr. at room temperature (22° C.) and then read in a Microbeta Trilux.
Curves are evaluated using a 4-parameter logistic nonlinear equation to obtain the concentration of competitor causing 50% inhibition of radioligand binding (IC50). Equilibrium dissociation constants (Ki) are calculated according to the equation Ki=IC50/(1+L/Kd), where L equals the concentration of radioligand used in the experiment and Kd equals the equilibrium dissociation constant of the radioligand for the receptor, determined from standard saturation analysis or homologous competition experiments. […]

[4] = target: human recombinant H1 receptor (Homo sapiens (Human), UniProt P35367); assay: H1 inverse agonism (IP1 accumulation in HEK293/hm H1 cells); format: cell-based; details: n=2
Sequence of human recombinant H1 receptor (P35367 whole entry): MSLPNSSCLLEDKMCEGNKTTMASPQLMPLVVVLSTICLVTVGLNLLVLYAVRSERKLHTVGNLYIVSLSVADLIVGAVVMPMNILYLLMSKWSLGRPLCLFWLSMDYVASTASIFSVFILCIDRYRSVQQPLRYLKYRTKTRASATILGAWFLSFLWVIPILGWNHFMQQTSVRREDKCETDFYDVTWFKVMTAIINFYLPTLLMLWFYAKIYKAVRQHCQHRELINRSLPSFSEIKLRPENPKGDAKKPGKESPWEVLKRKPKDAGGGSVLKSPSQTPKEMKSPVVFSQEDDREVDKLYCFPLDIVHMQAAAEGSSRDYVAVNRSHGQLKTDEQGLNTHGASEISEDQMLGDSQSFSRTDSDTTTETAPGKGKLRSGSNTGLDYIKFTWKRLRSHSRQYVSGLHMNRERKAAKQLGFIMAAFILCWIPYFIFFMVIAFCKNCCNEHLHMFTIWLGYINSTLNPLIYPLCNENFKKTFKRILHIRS

5-HT1B = 5-HT1B (Homo sapiens (Human), UniProt P28222); assay: 5-HT1B binding
Sequence of 5-HT1B (P28222 whole entry, species assumed): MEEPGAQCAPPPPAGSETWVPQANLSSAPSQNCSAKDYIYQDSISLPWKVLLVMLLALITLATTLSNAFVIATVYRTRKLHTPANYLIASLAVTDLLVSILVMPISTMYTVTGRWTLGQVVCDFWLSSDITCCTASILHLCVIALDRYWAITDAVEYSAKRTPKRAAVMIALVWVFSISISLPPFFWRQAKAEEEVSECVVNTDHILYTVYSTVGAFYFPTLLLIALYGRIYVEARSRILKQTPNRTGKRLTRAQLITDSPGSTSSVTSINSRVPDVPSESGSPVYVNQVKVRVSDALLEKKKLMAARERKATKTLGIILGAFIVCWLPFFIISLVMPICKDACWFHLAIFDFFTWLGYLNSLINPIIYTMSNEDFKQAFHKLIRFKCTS
From the text: as §2

5-HT2B [5] = target: T1, 5-HT2B (Homo sapiens (Human), UniProt P41595); assay: 5-HT2B binding
T1 sequence (P41595 whole entry, species assumed): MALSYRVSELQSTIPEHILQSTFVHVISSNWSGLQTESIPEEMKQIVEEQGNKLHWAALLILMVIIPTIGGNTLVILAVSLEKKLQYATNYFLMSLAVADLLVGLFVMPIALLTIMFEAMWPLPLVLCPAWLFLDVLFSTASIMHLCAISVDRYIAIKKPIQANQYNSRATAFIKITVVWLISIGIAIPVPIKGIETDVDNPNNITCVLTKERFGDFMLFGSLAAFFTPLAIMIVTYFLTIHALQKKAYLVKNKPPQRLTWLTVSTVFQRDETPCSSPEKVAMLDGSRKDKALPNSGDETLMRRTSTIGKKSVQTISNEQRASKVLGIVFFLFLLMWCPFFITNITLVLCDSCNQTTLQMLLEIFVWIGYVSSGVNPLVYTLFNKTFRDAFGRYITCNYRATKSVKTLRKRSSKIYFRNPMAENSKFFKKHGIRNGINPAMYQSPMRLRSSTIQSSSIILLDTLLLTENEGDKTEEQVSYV
From the text: as §2

Adrenergic alpha2C = Adrenergic alpha2C (Homo sapiens (Human), UniProt P18825); assay: Adrenergic alpha2C binding
Sequence of Adrenergic alpha2C (P18825 whole entry): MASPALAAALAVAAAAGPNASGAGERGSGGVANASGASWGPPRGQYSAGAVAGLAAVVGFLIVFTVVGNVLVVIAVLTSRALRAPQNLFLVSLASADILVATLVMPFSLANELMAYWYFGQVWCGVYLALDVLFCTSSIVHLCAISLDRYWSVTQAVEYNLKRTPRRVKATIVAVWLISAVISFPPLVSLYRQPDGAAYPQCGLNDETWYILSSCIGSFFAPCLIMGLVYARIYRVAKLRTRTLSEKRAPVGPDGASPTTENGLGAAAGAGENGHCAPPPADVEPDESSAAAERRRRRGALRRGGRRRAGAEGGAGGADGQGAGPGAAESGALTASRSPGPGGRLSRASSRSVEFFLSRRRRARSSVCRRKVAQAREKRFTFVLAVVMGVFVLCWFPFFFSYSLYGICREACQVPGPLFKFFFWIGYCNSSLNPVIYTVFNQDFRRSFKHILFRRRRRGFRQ
From the text: as §2

hERG channel = hERG channel (Homo sapiens (Human), UniProt Q12809); assay: hERG channel assay
Sequence of hERG channel (Q12809 whole entry): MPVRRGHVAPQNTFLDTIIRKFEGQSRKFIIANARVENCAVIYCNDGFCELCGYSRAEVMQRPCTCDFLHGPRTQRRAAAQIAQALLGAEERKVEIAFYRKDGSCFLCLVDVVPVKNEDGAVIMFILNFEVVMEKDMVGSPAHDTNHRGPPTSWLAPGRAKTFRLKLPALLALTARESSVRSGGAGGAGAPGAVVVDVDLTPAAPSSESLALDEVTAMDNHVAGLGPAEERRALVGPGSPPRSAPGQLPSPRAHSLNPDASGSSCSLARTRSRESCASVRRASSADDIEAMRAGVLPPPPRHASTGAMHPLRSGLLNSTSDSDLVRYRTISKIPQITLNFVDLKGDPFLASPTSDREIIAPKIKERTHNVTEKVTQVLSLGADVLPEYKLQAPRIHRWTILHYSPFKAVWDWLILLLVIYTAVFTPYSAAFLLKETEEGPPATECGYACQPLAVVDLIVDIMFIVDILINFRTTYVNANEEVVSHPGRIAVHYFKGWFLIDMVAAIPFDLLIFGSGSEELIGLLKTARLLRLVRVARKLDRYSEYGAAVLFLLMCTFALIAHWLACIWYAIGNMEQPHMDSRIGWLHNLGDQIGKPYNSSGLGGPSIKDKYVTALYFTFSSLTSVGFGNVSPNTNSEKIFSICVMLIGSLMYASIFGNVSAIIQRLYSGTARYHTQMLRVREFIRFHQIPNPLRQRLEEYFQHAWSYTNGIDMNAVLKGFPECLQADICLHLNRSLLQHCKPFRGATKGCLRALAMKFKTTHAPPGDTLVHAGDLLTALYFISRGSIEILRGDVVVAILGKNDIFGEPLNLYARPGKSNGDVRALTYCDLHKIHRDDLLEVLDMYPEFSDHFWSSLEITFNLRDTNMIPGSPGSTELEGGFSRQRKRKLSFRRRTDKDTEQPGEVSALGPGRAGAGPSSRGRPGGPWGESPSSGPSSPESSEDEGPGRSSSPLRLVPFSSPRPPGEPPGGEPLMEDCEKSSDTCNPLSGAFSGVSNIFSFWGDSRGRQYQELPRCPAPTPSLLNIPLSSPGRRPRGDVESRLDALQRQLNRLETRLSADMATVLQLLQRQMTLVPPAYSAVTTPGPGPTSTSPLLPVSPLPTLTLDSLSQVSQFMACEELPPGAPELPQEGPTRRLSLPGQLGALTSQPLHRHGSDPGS
From the text: as §2

5-HT2A receptor [6] = target: 5-HT2A receptor (Mus musculus (Mouse), UniProt P35363); assay: Inhibition of DOI induced headshake activity; format: in vivo; details: 10 mg/kg PO, mice, 60 min. pre-treatment, read-out: inhibition of DOI induced headshake response
From the text: as §1

5-HT2B [7] = target: T1, 5-HT2B; assay: 5-HT2B antagonist functional activity; format: biochemical
From the text: as §2

Wistar rats = assay: Sleep and behavioral monitoring in rats (EEG, EMG, motion); details: for Rebound Insomnia, Adj. Mean: NREM + REM sleep in 7th-9th hours post-treatment; for Rebound Insomnia, Adj. Mean / REM inhibition, Adj. Mean / Cumulative NREM sleep, Adj. Mean / Cumulative Total sleep, Adj. Mean / Locomotor Activity Intensity, Adj. Mean: difference from vehicle; for REM inhibition, Adj. Mean: REM sleep in first 12 hr. post-treatment; for Average Sleep Bout, Adj. Mean / Longest Sleep Bout, Adj. Mean / Cumulative NREM sleep, Adj. Mean / Cumulative Total sleep, Adj. Mean / Locomotor Activity Intensity, Adj. Mean: first 6 hr. post-treatment
Dopamine D3 = Dopamine D3 (Homo sapiens (Human), UniProt P35462); assay: Dopamine D3 binding; details: dihydrochloride
Sequence of Dopamine D3 (P35462 whole entry): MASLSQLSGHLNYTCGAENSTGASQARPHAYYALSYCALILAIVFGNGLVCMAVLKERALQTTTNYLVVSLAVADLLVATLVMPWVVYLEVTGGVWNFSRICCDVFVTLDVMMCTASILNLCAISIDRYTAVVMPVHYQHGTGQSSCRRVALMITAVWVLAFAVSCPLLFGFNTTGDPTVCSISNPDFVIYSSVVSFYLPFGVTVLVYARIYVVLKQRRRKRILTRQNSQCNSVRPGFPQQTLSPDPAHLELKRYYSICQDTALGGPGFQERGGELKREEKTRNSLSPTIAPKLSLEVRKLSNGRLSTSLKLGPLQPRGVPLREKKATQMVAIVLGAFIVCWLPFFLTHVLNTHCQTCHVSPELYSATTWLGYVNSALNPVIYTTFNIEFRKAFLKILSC
From the text: as §2

[8] = rat, PO, 6 hr. after treatment, 4 parameter logistic regression

For Cc1ccc2c(c1)Oc1sc(Cl)cc1C(N1CCN(CC(C)(C)C(=O)O)CC1)=N2 [Example 3, 3-[4-(2-chloro-8-methyl-thieno[2,3-b][1,5]benzoxazepin-4-yl)piperazin-1-yl]-2,2-dimethyl-propanoic acid dihydrochloride], the ED50 (5-HT2A Receptor [1]) was 0.09 mg/kg, the clearance [2] was 14.5 (+/−1.4, n = 3) mL/min./Kg and the Ki (Adrenergic alpha1A) was greater than 10.2 µM. The Ki [3] was 0.328 µM, the “suppression of constitutive activity (IP1), relative to Tripelennamine” value ([4]; at 1 μM) was 105% and the “suppression of constitutive activity (IP1), relative to Tripelennamine” value ([4]; at 10 μM) was 85%. It also gave a Ki (5-HT1B) greater than 5.58 µM, a Ki (5-HT2B [5]) of 0.121 µM and a Ki (Adrenergic alpha2C) greater than 4.23 µM. The “hERG Channel” value (hERG channel) was greater than 100 µM, the inhibition at 10 mg/kg (5-HT2A receptor [6]) was 100% and the Kb (5-HT2B [7]) was 0.0786 µM. The “Rebound Insomnia, Adj. Mean” value (Wistar rats; 0.025 mg/kg PO) was 1.4 min, the “REM inhibition, Adj. Mean” value (Wistar rats; 0.025 mg/kg PO) was 0.5 min and the “Average Sleep Bout, Adj. Mean” value (Wistar rats; 0.025 mg/kg PO) was 1.2 n-fold increase over vehicle controls. For the same molecule, the “Longest Sleep Bout, Adj. Mean” value (Wistar rats; 0.025 mg/kg PO) was 1.1 n-fold increase over vehicle controls, the “Cumulative NREM sleep, Adj. Mean” value (Wistar rats; 0.025 mg/kg PO) was 6.5 min and the “Cumulative Total sleep, Adj. Mean” value (Wistar rats; 0.025 mg/kg PO) was 7.7 min. The “Locomotor Activity Intensity, Adj. Mean” value (Wistar rats; 0.025 mg/kg PO) was 0.2 LMA counts per minute of EEG-defined wakefulness, the “Rebound Insomnia, Adj. Mean” value (Wistar rats; 0.035 mg/kg PO) was 1.3 min and the “REM inhibition, Adj. Mean” value (Wistar rats; 0.035 mg/kg PO) was -1.8 min. For the same molecule, the “Average Sleep Bout, Adj. Mean” value (Wistar rats; 0.035 mg/kg PO) was 1.3 n-fold increase over vehicle controls, the “Longest Sleep Bout, Adj. Mean” value (Wistar rats; 0.035 mg/kg PO) was 1.1 n-fold increase over vehicle controls and the “Cumulative NREM sleep, Adj. Mean” value (Wistar rats; 0.035 mg/kg PO) was 19.2 min. The “Cumulative Total sleep, Adj. Mean” value (Wistar rats; 0.035 mg/kg PO) was 18.9 min, the “Locomotor Activity Intensity, Adj. Mean” value (Wistar rats; 0.035 mg/kg PO) was 0.2 LMA counts per minute of EEG-defined wakefulness and the “Rebound Insomnia, Adj. Mean” value (Wistar rats; 0.05 mg/kg PO) was 0.2 min. For the same molecule, the “REM inhibition, Adj. Mean” value (Wistar rats; 0.05 mg/kg PO) was 4.2 min, the “Average Sleep Bout, Adj. Mean” value (Wistar rats; 0.05 mg/kg PO) was 1.6 n-fold increase over vehicle controls and the “Longest Sleep Bout, Adj. Mean” value (Wistar rats; 0.05 mg/kg PO) was 1.4 n-fold increase over vehicle controls. For the same molecule, the “Cumulative NREM sleep, Adj. Mean” value (Wistar rats; 0.05 mg/kg PO) was 23.4 min, the “Cumulative Total sleep, Adj. Mean” value (Wistar rats; 0.05 mg/kg PO) was 25.3 min and the “Locomotor Activity Intensity, Adj. Mean” value (Wistar rats; 0.05 mg/kg PO) was −0.3 LMA counts per minute of EEG-defined wakefulness. The “Rebound Insomnia, Adj. Mean” value (Wistar rats; 0.1 mg/kg PO) was -3.7 min, the “REM inhibition, Adj. Mean” value (Wistar rats; 0.1 mg/kg PO) was 4.9 min and the “Average Sleep Bout, Adj. Mean” value (Wistar rats; 0.1 mg/kg PO) was 1.7 n-fold increase over vehicle controls. For the same molecule, the “Longest Sleep Bout, Adj. Mean” value (Wistar rats; 0.1 mg/kg PO) was 1.5 n-fold increase over vehicle controls, the “Cumulative NREM sleep, Adj. Mean” value (Wistar rats; 0.1 mg/kg PO) was 26.7 min and the “Cumulative Total sleep, Adj. Mean” value (Wistar rats; 0.1 mg/kg PO) was 28.7 min. The “Locomotor Activity Intensity, Adj. Mean” value (Wistar rats; 0.1 mg/kg PO) was 0.1 LMA counts per minute of EEG-defined wakefulness, the “Rebound Insomnia, Adj. Mean” value (Wistar rats; 0.25 mg/kg PO) was -2.2 min and the “REM inhibition, Adj. Mean” value (Wistar rats; 0.25 mg/kg PO) was 2.0 min. For the same molecule, the “Average Sleep Bout, Adj. Mean” value (Wistar rats; 0.25 mg/kg PO) was 2.1 n-fold increase over vehicle controls, the “Longest Sleep Bout, Adj. Mean” value (Wistar rats; 0.25 mg/kg PO) was 2.0 n-fold increase over vehicle controls and the “Cumulative NREM sleep, Adj. Mean” value (Wistar rats; 0.25 mg/kg PO) was 37.9 min. For the same molecule, the “Cumulative Total sleep, Adj. Mean” value (Wistar rats; 0.25 mg/kg PO) was 38.9 min, the “Locomotor Activity Intensity, Adj. Mean” value (Wistar rats; 0.25 mg/kg PO) was −0.7 LMA counts per minute of EEG-defined wakefulness and the “Rebound Insomnia, Adj. Mean” value (Wistar rats; 0.5 mg/kg PO) was -5.0 min. For the same molecule, the “REM inhibition, Adj. Mean” value (Wistar rats; 0.5 mg/kg PO) was 0.4 min, the “Average Sleep Bout, Adj. Mean” value (Wistar rats; 0.5 mg/kg PO) was 1.8 n-fold increase over vehicle controls and the “Longest Sleep Bout, Adj. Mean” value (Wistar rats; 0.5 mg/kg PO) was 2.2 n-fold increase over vehicle controls. For the same molecule, the “Cumulative NREM sleep, Adj. Mean” value (Wistar rats; 0.5 mg/kg PO) was 32.9 min, the “Cumulative Total sleep, Adj. Mean” value (Wistar rats; 0.5 mg/kg PO) was 30.9 min and the “Locomotor Activity Intensity, Adj. Mean” value (Wistar rats; 0.5 mg/kg PO) was 0.6 LMA counts per minute of EEG-defined wakefulness. For the same molecule, the “Rebound Insomnia, Adj. Mean” value (Wistar rats; 1 mg/kg PO) was 1.6 min, the “REM inhibition, Adj. Mean” value (Wistar rats; 1 mg/kg PO) was -0.1 min and the “Average Sleep Bout, Adj. Mean” value (Wistar rats; 1 mg/kg PO) was 1.7 n-fold increase over vehicle controls. For the same molecule, the “Longest Sleep Bout, Adj. Mean” value (Wistar rats; 1 mg/kg PO) was 2.0 n-fold increase over vehicle controls, the “Cumulative NREM sleep, Adj. Mean” value (Wistar rats; 1 mg/kg PO) was 34.0 min and the “Cumulative Total sleep, Adj. Mean” value (Wistar rats; 1 mg/kg PO) was 33.6 min. For the same molecule, the “Locomotor Activity Intensity, Adj. Mean” value (Wistar rats; 1 mg/kg PO) was −1.6 LMA counts per minute of EEG-defined wakefulness, the “Rebound Insomnia, Adj. Mean” value (Wistar rats; 3 mg/kg PO) was 0.3 min and the “REM inhibition, Adj. Mean” value (Wistar rats; 3 mg/kg PO) was -4.6 min. For the same molecule, the “Average Sleep Bout, Adj. Mean” value (Wistar rats; 3 mg/kg PO) was 2.0 n-fold increase over vehicle controls, the “Longest Sleep Bout, Adj. Mean” value (Wistar rats; 3 mg/kg PO) was 2.7 n-fold increase over vehicle controls and the “Cumulative NREM sleep, Adj. Mean” value (Wistar rats; 3 mg/kg PO) was 31.7 min. The “Cumulative Total sleep, Adj. Mean” value (Wistar rats; 3 mg/kg PO) was 29.7 min, the “Locomotor Activity Intensity, Adj. Mean” value (Wistar rats; 3 mg/kg PO) was −3.1 LMA counts per minute of EEG-defined wakefulness and the “Rebound Insomnia, Adj. Mean” value (Wistar rats; 10 mg/kg PO) was -3.1 min. For the same molecule, the “REM inhibition, Adj. Mean” value (Wistar rats; 10 mg/kg PO) was -9.4 min, the “Average Sleep Bout, Adj. Mean” value (Wistar rats; 10 mg/kg PO) was 2.0 n-fold increase over vehicle controls and the “Longest Sleep Bout, Adj. Mean” value (Wistar rats; 10 mg/kg PO) was 2.3 n-fold increase over vehicle controls. The “Cumulative NREM sleep, Adj. Mean” value (Wistar rats; 10 mg/kg PO) was 29.1 min, the “Cumulative Total sleep, Adj. Mean” value (Wistar rats; 10 mg/kg PO) was 26.5 min and the “Locomotor Activity Intensity, Adj. Mean” value (Wistar rats; 10 mg/kg PO) was −1.9 LMA counts per minute of EEG-defined wakefulness. The “change in awake time following treatment (dose response curve, FIG. 2)” value (Wistar rats; rat) was “does not result in rebound insomnia”, the “change in cumulative REM sleep time (dose response curve, FIG. 1)” value (Wistar rats; rat) was “does not inhibit REM sleep” and the “change in distances moved during periods of wakefulness (dose response curve, FIG. 3)” value (Wistar rats; rat) was “does not inhibit or stimulate normal activity”. For the same molecule, the “Estimated efficacy dose, NREM accumulation = 30 min.” value (Wistar rats; [8]) was 0.09 mg/kg, the “Estimated efficacy dose, average sleep bout (1.5-fold increase)” value (Wistar rats; [8]) was 0.04 mg/kg and the “Estimated efficacy dose, longest sleep bout (1.75-fold increase)” value (Wistar rats; [8]) was 0.12 mg/kg. The “Estimated efficacy dose, total sleep accumulation = 25 min.” value (Wistar rats; [8]) was 0.05 mg/kg, the REM sleep inhibition (Wistar rats; rat, at 3 mg/kg) was “without significant” and the “cumulative NREM sleep time” value (Wistar rats; rat, at 3 mg/kg) was “significantly increase”. For the same molecule, the “cumulative total sleep time” value (Wistar rats; rat, at 3 mg/kg) was “significantly increase”, the “inhibition of locomotor intensity (LMI)” value (Wistar rats; rat, at 3 mg/kg) was “without significant” and the rebound insomnia (Wistar rats; rat, at 3 mg/kg) was “without significant rebound insomnia”. The NREM sleep (Wistar rats; rat, coadministered with citalopram) was “significantly increase NREM sleep at significantly lower doses” and the Ki (Dopamine D3) was greater than 5.68 µM.
